# Reference: patent US9085536B2, “Aconitine compounds, compositions, uses, and preparation thereof” (priority 2011, dated 2015)
# Where two headings read alike, the source gives them in different places.
# Legend:
# [1] = target: T1, rNaV1.4 expressed in CHO cells (Rattus norvegicus, UniProt P15390); assay: Na+ current block at steady state, whole-cell patch clamp with pulse trains; assay type: cell-based; settings: for depolarizing pulses required to reach steady-state block: 10 Hz pulse trains
# T1 construct: expressed in transfected cells; host or cells: CHO cells
# T1 sequence (P15390 whole entry): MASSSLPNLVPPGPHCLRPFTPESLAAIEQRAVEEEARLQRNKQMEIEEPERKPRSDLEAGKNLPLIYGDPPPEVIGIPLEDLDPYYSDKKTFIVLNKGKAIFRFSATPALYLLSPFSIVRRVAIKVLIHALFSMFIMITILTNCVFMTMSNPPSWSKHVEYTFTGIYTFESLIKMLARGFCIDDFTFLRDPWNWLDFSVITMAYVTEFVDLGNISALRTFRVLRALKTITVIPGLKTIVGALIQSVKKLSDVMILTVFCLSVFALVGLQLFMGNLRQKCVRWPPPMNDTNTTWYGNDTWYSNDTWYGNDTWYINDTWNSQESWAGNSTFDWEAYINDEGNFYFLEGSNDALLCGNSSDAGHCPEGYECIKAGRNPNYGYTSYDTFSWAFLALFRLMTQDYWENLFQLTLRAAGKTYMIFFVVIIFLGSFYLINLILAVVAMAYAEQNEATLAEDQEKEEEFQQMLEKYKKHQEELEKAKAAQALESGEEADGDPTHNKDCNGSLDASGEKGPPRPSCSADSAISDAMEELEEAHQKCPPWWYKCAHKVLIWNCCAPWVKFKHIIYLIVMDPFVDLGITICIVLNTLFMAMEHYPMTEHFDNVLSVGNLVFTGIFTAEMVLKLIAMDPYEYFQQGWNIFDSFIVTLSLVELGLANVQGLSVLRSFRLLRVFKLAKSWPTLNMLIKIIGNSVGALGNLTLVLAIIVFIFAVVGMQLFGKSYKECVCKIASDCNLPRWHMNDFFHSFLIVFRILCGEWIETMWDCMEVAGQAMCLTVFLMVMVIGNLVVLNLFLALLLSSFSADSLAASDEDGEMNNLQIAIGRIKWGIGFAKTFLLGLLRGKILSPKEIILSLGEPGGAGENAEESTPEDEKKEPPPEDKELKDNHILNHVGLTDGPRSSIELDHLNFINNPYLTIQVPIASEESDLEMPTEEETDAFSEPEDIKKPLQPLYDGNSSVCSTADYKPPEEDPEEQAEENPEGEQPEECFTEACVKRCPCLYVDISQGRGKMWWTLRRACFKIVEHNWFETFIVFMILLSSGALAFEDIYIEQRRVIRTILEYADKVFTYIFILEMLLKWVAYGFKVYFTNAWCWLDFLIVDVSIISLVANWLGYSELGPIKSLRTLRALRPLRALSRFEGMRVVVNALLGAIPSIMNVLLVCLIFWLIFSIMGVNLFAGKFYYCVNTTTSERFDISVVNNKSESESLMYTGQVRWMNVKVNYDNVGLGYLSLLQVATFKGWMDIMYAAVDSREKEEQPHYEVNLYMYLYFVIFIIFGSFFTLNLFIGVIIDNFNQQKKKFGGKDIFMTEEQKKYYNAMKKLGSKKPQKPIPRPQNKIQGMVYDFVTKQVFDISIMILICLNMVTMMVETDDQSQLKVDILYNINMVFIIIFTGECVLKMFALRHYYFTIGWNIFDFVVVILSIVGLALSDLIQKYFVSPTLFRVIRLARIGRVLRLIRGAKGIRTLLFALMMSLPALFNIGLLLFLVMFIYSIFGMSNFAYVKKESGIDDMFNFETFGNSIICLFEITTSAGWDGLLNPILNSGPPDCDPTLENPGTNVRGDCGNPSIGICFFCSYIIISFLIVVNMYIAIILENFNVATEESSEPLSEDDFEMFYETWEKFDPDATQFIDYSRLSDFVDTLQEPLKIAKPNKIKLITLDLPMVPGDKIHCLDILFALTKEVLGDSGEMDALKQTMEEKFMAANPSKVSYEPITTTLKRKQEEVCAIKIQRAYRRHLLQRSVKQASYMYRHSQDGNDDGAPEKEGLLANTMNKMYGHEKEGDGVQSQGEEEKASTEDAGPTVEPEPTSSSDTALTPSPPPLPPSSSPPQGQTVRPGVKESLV
# Description: Binding of aconitine to NaV is use-dependent and is known to result both in a left shift of the current-voltage (I-V) relationship and in partial block of the channel. […] To determine whether aconitine binding is reversible, two experiments were designed. First, as block by aconitine is known to be use dependent, peak current was measured as a function of pulse number in the presence of two different concentrations of aconitine. Since aconitine binds preferentially to the open state of the sodium channel, a pulse train was applied sequentially with a control pulse used to record peak current. The pulse train consisted of a series of 50 depolarizing pulses (from −100 mV holding potential to 0 mV, 10 ms duration) applied at 10 Hz frequency, while the control pulse consisted of a single depolarizing pulse (from −100 mV holding potential to 0 mV test potential, 10 ms duration).
# Pulse trains of 10 Hz frequency and control pulses were applied sequentially to cells expressing rNaV1.4, and currents elicited from the control pulse were recorded after each pulse train. This process was repeated until the current elicited from the control pulse had reached a steady state and was no longer decreasing with each additional pulse train. If block were irreversible, this steady state current would be expected to be independent of toxin concentration—the toxin would not be able to dissociate from its receptor, and the number of toxin molecules is much greater than the number of sodium channels (assuming a 100 μL chamber containing 1000 CHO cells, each expressing 10,000 sodium channels, at 50 μM concentration toxin molecules outnumber receptors by a factor of 3×10^8:1), therefore, all receptors would eventually reach the bound state.
# Block by aconitine is known to be use-dependent, therefore the use-dependence of the C14 derivatives of aconitine was evaluated. Peak Na current was measured as a function of pulse number in the presence of different concentrations of the molecules. […] Since aconitine binds preferentially to the open state of the sodium channel, a pulse train was applied sequentially with a control pulse used to record peak current. The pulse train consisted of a series of 50 depolarizing pulses (from −100 mV holding potential to 0 mV, 10 ms duration) applied at 10 Hz frequency, while the control pulse consisted of a single depolarizing pulse (from −100 mV holding potential to 0 mV test potential, 10 ms duration).
# Pulse trains of 10 Hz frequency and control pulses were applied sequentially to CHO cells expressing rNaV1.4, and currents elicited from the control pulse were recorded after each pulse train. This process was repeated until the current elicited from the control pulse had reached a steady state and was no longer decreasing with each additional pulse train. If block were irreversible, this steady state current would be expected to be independent of toxin concentration—the toxin would not be able to dissociate from its receptor, and the number of toxin molecules is much greater than the number of sodium channels, therefore, all receptors would eventually reach the bound state.
# The ability of the synthesized aconitine derivatives to block NaV channels was evaluated with patch-clamp experiments in the whole-cell configuration on CHO cells expressing rNaV1.4 heterologously. A buffer solution containing the toxin was applied to the cells, whole-cell Na^+ currents were recorded until the decreasing current reached a steady-state (300 to 3000 pulses, depending on the molecules and concentrations). The peak Na^+ currents were measured with a depolarizing test pulse (from −100 mV holding potential to 0 mV test potential, 10 ms duration).
# [2] = total dose; cited from earlier work
# [3] = target: T1, rNaV1.4 expressed in CHO cells; assay: Steady-state inactivation, whole-cell recording, Boltzmann fit; assay type: cell-based
# Description: . The channels were modified by perfusing the cells with buffered solution containing aconitine at the given concentrations and then simple pulses (10 ms pulses to 0 mV from −100 mV holding potential) were recorded until the currents leveled to a steady value (typically ˜1000 pulses). Steady-state fast inactivation of the current was then determined by delivering 500 ms conditioning pulses to potentials ranging from −130 to −11 mV (7 my increments) immediately followed by a 10 ms test pulse to 0 mV to test the available current. The peak current measured during the test pulse was normalized to the maximum peak current recorded in the conditioning pulses. […] Midpoint voltage V0.5 represents the membrane potential at which half maximum current is observed; slope factor at midpoint k quantifies the rate at which the inactivation response occurs.
# [4] = target: T1, rNaV1.4 expressed in CHO cells; assay type: cell-based
# Description: […] […] It is noteworthy that little or no increase in current was observed during wash off when no depolarizing pulses were applied and peak current was measured as a function of time.
# Since the molecules bind to the open-state of the Nav channel their release also requires activation pulses. In typical experiments, buffered external solution was perfused and a pulse train sequence was applied to the patch-clamp until the current reached a steady-state for at least two minutes.
# [5] = target: T1, rNaV1.4 expressed in CHO cells; assay: Activation: current-voltage (I-V) and conductance-voltage (G-V) relationship, whole-cell recording; assay type: cell-based; settings: 50 μM
# Description: To determine if the shift in I-V relationship is affected by the aromaticity of the aconitine C14 benzoate, current-voltage relationships were recorded for control cells expressing NaV, those that had been modified by aconitine, and those that had been modified by aconitine C14-cyclohexanoate 4.8d. For the modified channels, solutions of 50 μM concentration of the respective toxins were perfused onto the cells, and then depolarizing pulses were applied until a steady state current was observed, generally requiring about 1000 pulses. At that time, current-voltage relationships were again recorded. […] A shift towards hyperpolarizing potentials is clearly observed in both cases. Currents recorded at −50 mV are highlighted for all three experiments.
# To determine the effect on current-voltage (I-V) relationship of the aconitine derivatives, whole cell currents were recorded in cells expressing NaV in the presence of aconitine derivatives. Control I-V plots were recorded with unmodified NaV1.4, to which were compared NaV channels modified by aconitine as well as by selected analogs. For the modified channels, solutions of the respective toxins were perfused onto the cells, and then depolarizing pulses were applied until a steady state current was observed, generally requiring about 1000 pulses. A sequence of test pulses was then recorded to determine the current-voltage relationships (using a step protocol in which CHO cells were depolarized for 10 ms from a holding potential of −100 mV to a range of potentials from −95 mV to +30 mV in 5 or 10 mV increments; peak currents were normalized to the maximum peak current and plotted against voltage).
smiles,measurement,setting,value
"CCN1CC2(COC)C3C(OC)C4C1C3(C1C[C@@]3(O)[C@H](OC(=O)c5ccccc5)[C@@H]1[C@]4(OC(C)=O)[C@@H](O)[C@@H]3OC)[C@@H](OC)C[C@H]2O (some centres unmarked) [Aconitine, aconitine]",peak current blocked at steady state,[1],40%
same,% Remaining current after reaching steady-state binding,[1]; 5 μM,40%
same,% Remaining current after reaching steady-state binding,[1]; 20 μM,19%
same,peak current blocked at steady state,[1]; 20 μM,81%
same,Current measured at 20 μM (%),"[1]; 20 μM, before wash-off",19%
same,depolarizing pulses required to reach steady-state block,[1]; 20 μM,around 600 pulses
same,% Remaining current after reaching steady-state binding,[1]; 50 μM,13%
same,peak current blocked at steady state,[1]; 50 μM,83%
same,depolarizing pulses required to reach steady-state block,[1]; 50 μM,approximately 800 pulses
same,% Remaining current after reaching steady-state binding,"[1]; 50 μM, listed as aconitine",15%
same,% Remaining current after reaching steady-state binding,[1]; 75 μM,13%
same,peak current blocked at steady state,[1]; 75 μM,87%
same,Current measured at 75 μM (%),"[1]; 75 μM, before wash-off",13%
same,depolarizing pulses required to reach steady-state block,[1]; 75 μM,800 pulses
same,% Remaining current after reaching steady-state binding,[1]; 200 μM,5%
same,peak current blocked at steady state,[1]; 200 μM,approximately 94%
same,depolarizing pulses required to reach steady-state block,[1]; 200 μM,300 pulses
same,depolarizing pulses required to reach steady-state block,[1]; 5 (unit not printed),over 2500 pulses
same,"lethal doses in humans, estimated",[2],1 to 5 mg
same,Steady-state inactivation V0.5 (mV),[3]; 5 μM,−65.1 mV
same,Steady-state inactivation k (slope factor at midpoint),[3]; 5 μM,6.50
same,Steady-state inactivation V0.5 (mV),[3]; 50 μM,−65 mV
same,Steady-state inactivation k (slope factor at midpoint),[3]; 50 μM,5.97
same,Steady-state inactivation V0.5 (mV),[3]; 200 μM,−82.4 mV
same,Steady-state inactivation k (slope factor at midpoint),[3]; 200 μM,21.0
same,current restoration during wash off,"[4]; after 200 μM and 1000 depolarizing pulses, toxin-free buffer with pulses",significant current restoration
same,Current after wash-off (%),[4]; after wash-off of 20 μM,94%
same,Current after wash-off (%),[4]; after wash-off of 75 μM,62%
same,Activation V0.5 (mV),[5],−40.3 mV
same,Activation hg,[5],10.4
same,membrane potential at which maximum inward Na current occurs,[5],around −10 mV
same,current at −50 mV,"[5]; after about 1000 pulses, no current in control cells",substantial currents
